For assay [1], the species on record is Homo sapiens.
For assay [2], the species on record is Homo sapiens. In words: Potency relative to fluocinolone 16,17-acetonide(Experimental vasoconstictor activity)in human; NA= Not active. In kind it is functional, organism-based.
Assay [3] is filed under the species Homo sapiens. In words: Potency relative to fluocinolone 16,17-acetonide(Experimental vasoconstictor activity) in human. It is filed as functional.
The species named for assay [4] is Rattus norvegicus. The assay can be described thus: Anti-inflammatory effect in rat granuloma assay, activity relative to hydrocortisone and hydrocortisone 21-acetate. It is filed as functional.
The species entered for assay [5] is Homo sapiens. In words: Potency relative to fluocinolone 16,17-acetonide in the human vasoconstictor test. In kind it is functional.
The species named for assay [6] is Rattus norvegicus. The assay can be described thus: Experimental relative rat granuloma activity (relative to hydrocortisone and hydrocortisone 21-acetate); 200-500. It is filed as functional.
For assay [7], the species on record is Rattus norvegicus. The assay can be described thus: Experimental relative rat granuloma activity (relative to hydrocortisone and hydrocortisone 21-acetate); 0.15-0.5. It is filed as functional.
For assay [8], the species on record is Homo sapiens. In words: Potency relative to fluocinolone 16,17-acetonide(Experimental vasoconstictor activity) in human; 16-34. In kind it is functional.
Assay [9] is filed under the species Homo sapiens. The assay can be described thus: Potency relative to fluocinolone 16,17-acetonide(Experimental vasoconstictor activity) in human;NA =Not active. In kind it is functional, organism-based.
For assay [10], the species on record is Homo sapiens. In words: Potency relative to fluocinolone 16,17-acetonide(Experimental vasoconstictor activity) in human; 900-1080. It is filed as functional.
Assay [11] is filed under the species Homo sapiens. The assay can be described thus: Potency relative to fluocinolone 16,17-acetonide(Experimental vasoconstictor activity) in human; 15-45. It is filed as functional.
The species named for assay [12] is Homo sapiens. The assay can be described thus: Potency relative to fluocinolone 16,17-acetonide(Experimental vasoconstictor activity) in human; 100-300. It is filed as functional.
For assay [13], the species on record is Homo sapiens. The assay can be described thus: Potency relative to fluocinolone 16,17-acetonide(Experimental vasoconstictor activity) in human;NA = Not active. It is filed as functional, organism-based.
Assay [14] is filed under the species Homo sapiens. In words: PPotency relative to fluocinolone 16,17-acetonide(Experimental vasoconstictor activity) in human; NA= Not active. It is filed as functional, organism-based.

Activity calls are given as the source filed them. No cut-off for these calls is given here.

With `CC1CC2C3CCC4=CC(=O)C=CC4(C)[C@@]3(F)C(O)CC2(C)[C@@]1(O)C(=O)COP(=O)(O)O` (some centres undefined), the Potency entry in the assay filed under Homo sapiens [1] is “inactive”.

With `CCCCC(=O)OCC(=O)[C@H]1[C@H](C)C[C@H]2[C@@H]3C[C@H](F)C4=CC(=O)C=C[C@]4(C)[C@@]3(F)[C@@H](O)C[C@@]21C`, in the assay filed under Homo sapiens [2], the Potency entry is “inactive”.

As to `C[C@H]1CC2C3CCC4=CC(=O)C=CC4(C)[C@@]3(F)[C@@H](O)CC2(C)[C@@]1(O)C(=O)CCl` (some centres undefined), the Potency result in the assay listed under Homo sapiens [1] was “inactive”.

Regarding `CC(=O)OCC(=O)[C@]1(O)C2(C)C[C@H](O)C3C(CCC4=CC(=O)C=CC43C)C2C[C@@]1(C)O` (some centres undefined), the Potency result in the assay filed under Homo sapiens [1] is “inactive”.

With `CC1(C)O[C@@H]2CC3C4CCC5=CC(=O)CCC5(C)C4[C@@H](O)CC3(C)[C@]2(C(=O)CCl)O1` (some centres undefined), the Potency result in the assay filed under Homo sapiens [1] was “inactive”.

For the molecule `CC1(C)O[C@@H]2C[C@H]3[C@@H]4C[C@H](F)C5=CC(=O)C=C[C@]5(C)[C@@]4(F)[C@@H](O)C[C@]3(C)[C@]2(C(=O)CO)O1` [FLUOCINOLONE ACETONIDE], the Potency in the assay filed under Homo sapiens [3] came to 100; in the assay filed under Rattus norvegicus [4], 450.

On to `CC1(C)O[C@@H]2C[C@H]3[C@@H]4CCC5=CC(=O)CC[C@]5(C)[C@@]4(F)[C@@H](O)C[C@]3(C)[C@]2(C(=O)CCl)O1` [HALCINONIDE], for which the Potency entry in the assay filed under Homo sapiens [1] is “inactive”. Also, the Potency in the assay listed under Homo sapiens [5] is listed as over 360.

As for `CC(=O)OCC(=O)[C@@]1(O)CC[C@H]2[C@@H]3CCC4=CC(=O)C=C[C@]4(C)[C@H]3[C@@H](O)C[C@@]21C` [PREDNISOLONE ACETATE], the Potency in the assay listed under Homo sapiens [5] is 1; in the assay listed under Rattus norvegicus [4], 3.

`CCC(=O)[C@@]1(C)[C@H](C)CC2C3CCC4=CC(=O)C=C[C@]4(C)C3[C@@H](O)C[C@@]21C` (some centres undefined): the Potency result in the assay listed under Homo sapiens [1] is “inactive”.

Take `C[C@@H]1C[C@H]2[C@@H]3C[C@H](F)C4=CC(=O)C=C[C@]4(C)[C@@]3(F)[C@@H](O)C[C@]2(C)[C@@]1(O)C(=O)CO` [FLUMETHASONE]: in the assay filed under Rattus norvegicus [6], the Potency was 200.

As for `C[C@]12C=CC(=O)C=C1CC[C@@H]1[C@@H]2[C@@H](O)C[C@@]2(C)[C@H]1CC[C@]2(O)C(=O)CO` [PREDNISOLONE], the Potency in the assay filed under Homo sapiens [5] was 0.1; in the assay filed under Rattus norvegicus [4] it was 3.

In the assay filed under Rattus norvegicus [7], `CC(=O)OCC(=O)[C@@]1(O)CCC2C3CCC4=CC(=O)CCC4(C)[C@@]3(Cl)[C@@H](Cl)CC21C` (some centres undefined) yielded a Potency of 0.15.

On to `C[C@]12C[C@H](O)[C@H]3[C@@H](CCC4=CC(=O)CC[C@@]43C)[C@@H]1CC[C@@H]2C(=O)CO` [CORTICOSTERONE], for which the Potency in the assay filed under Homo sapiens [5] and in the assay filed under Rattus norvegicus [4] was 0.3 in each case.

`CC12CCC(=O)C=C1CCC1C2[C@@H](O)CC2(C)C1CC[C@]2(O)C(=O)OCCl` (some centres undefined): the Potency entry in the assay filed under Homo sapiens [1] was “inactive”.

Take `CCCCC(=O)O[C@]1(C(=O)COC(C)=O)CCC2C3CCC4=CC(=O)C=CC4(C)C3C(O)CC21C` (some centres undefined): the Potency result in the assay listed under Homo sapiens [1] is “inactive”.

Consider `C[C@@H]1CC2C3CCC4=CC(=O)C=CC4(C)[C@@]3(F)C(O)CC2(C)C1C(=O)CO` (some centres undefined) [DEOXYMETHASONE], for which the Potency result in the assay listed under Homo sapiens [1] is “inactive”. The molecule also yielded a Potency in the assay listed under Rattus norvegicus [4] of 10.

Regarding `C[C@@H]1CC2C3CCC4=CC(=O)C=CC4(C)[C@@]3(F)[C@@H](O)CC2(C)[C@@]1(C)C(=O)CO` (some centres undefined), the Potency entry in the assay listed under Homo sapiens [1] was “inactive”.

For `CC(=O)OCC(=O)[C@@]1(O)CC[C@H]2[C@@H]3CCC4=CC(=O)CC[C@]4(C)[C@H]3[C@@H](O)C[C@@]21C` [HYDROCORTISONE ACETATE], the Potency in the assay filed under Homo sapiens [5] and in the assay filed under Rattus norvegicus [4] was 1 in each case.

Regarding `CC1(C)O[C@@H]2C[C@H]3[C@@H]4CCC5=CC(=O)C=C[C@]5(C)[C@@]4(F)[C@@H](O)C[C@]3(C)[C@]2(C(=O)CO)O1` [TRIAMCINOLONE ACETONIDE], the Potency was 100 in the assay listed under Homo sapiens [5] and 49 in the assay listed under Rattus norvegicus [4].

As for `C[C@@H]1C[C@H]2[C@@H]3C[C@H](F)C4=CC(=O)C=C[C@]4(C)[C@H]3[C@@H](O)C[C@]2(C)[C@@]1(O)C(=O)CO` [PARAMETHASONE], in the assay listed under Homo sapiens [1], the Potency entry was “inactive”. The molecule further yielded a Potency in the assay listed under Rattus norvegicus [4] of 63.6.

On to `CCCCC(=O)O[C@]1(C(=O)CO)CCC2C3CCC4=CC(=O)CCC4(C)C3C(O)CC21C` (some centres undefined), for which the Potency in the assay listed under Homo sapiens [8] turned out to be 16.

In the case of `CC1(C)O[C@@H]2C[C@H]3[C@@H]4CCC5=CC(=O)C=C[C@]5(C)[C@H]4[C@@H](O)C[C@]3(C)[C@]2(C(=O)CO)O1` [DESONIDE], in the assay filed under Homo sapiens [9], the Potency entry is “inactive”. This molecule also came in with a Potency in the assay filed under Rattus norvegicus [4] of 66.2.

Take `C[C@H]1C[C@@H]2[C@H]([C@@H](O)C[C@@]3(C)[C@H]2CC[C@]3(O)C(=O)CO)[C@@]2(C)C=CC(=O)C=C12` (stereo in doubt) [METHYLPREDNISOLONE]: the figures for the Potency in the assay listed under Homo sapiens [5] and in the assay listed under Rattus norvegicus [4] were 0.1 and 5, respectively.

In the assay filed under Homo sapiens [10], `CCCC(=O)O[C@]1(C(C)=O)CCC2C3C[C@H](F)C4=CC(=O)C=CC4(C)[C@@]3(F)C(O)CC21C` (some centres undefined) registered a Potency of 900.

Consider `C[C@]12C=CC(=O)C=C1CC[C@H]1[C@@H]3C[C@@H](O)[C@](O)(C(=O)CO)[C@@]3(C)C[C@H](O)[C@@]12F` [TRIAMCINOLONE], for which the Potency in the assay filed under Homo sapiens [5] turned out to be 0.01; in the assay listed under Rattus norvegicus [4], 2.6.

Take `CCCC(=O)OCC(=O)[C@@]1(OC(C)=O)CCC2C3C[C@H](F)C4=CC(=O)C=CC4(C)[C@@]3(F)C(O)CC21C` (some centres undefined): the Potency entry in the assay filed under Homo sapiens [1] was “inactive”.

`CCC(=O)OCC(=O)C1(C)C(C)CC2C3CCC4=CC(=O)C=CC4(C)[C@@]3(F)CCC21C` (some centres undefined): the Potency result in the assay listed under Homo sapiens [1] was “inactive”.

With `CC1(C)O[C@@H]2CC3C4C[C@H](F)C5=CC(=O)C=CC5(C)[C@@]4(F)[C@@H](O)CC3(C)[C@]2(C(=O)C(=O)OCCl)O1` (some centres undefined), the Potency entry in the assay filed under Homo sapiens [1] was “inactive”.

Turning to `C[C@]12C=CC(=O)C=C1[C@@H](F)C[C@H]1[C@@H]3C[C@@H](O)[C@](O)(C(=O)CO)[C@@]3(C)C[C@H](O)[C@@]12F` [FLUOCINOLONE], the results for the Potency in the assay listed under Homo sapiens [11] and in the assay listed under Rattus norvegicus [4] were 15 and 19.7, respectively.

For the molecule `C[C@@H]1CC2C3C[C@H](F)C4=CC(=O)C=CC4(C)[C@@]3(F)C(O)CC2(C)C1C(=O)COC(=O)C(C)(C)C` (some centres undefined), the Potency result in the assay filed under Homo sapiens [1] is “inactive”.

As for `CC1(C)O[C@@H]2C[C@H]3[C@@H]4C[C@H](F)C5=CC(=O)CC[C@]5(C)[C@H]4[C@@H](O)C[C@]3(C)[C@]2(C(=O)CO)O1` [FLURANDRENOLIDE], the Potency in the assay listed under Homo sapiens [12] is on record as 100; in the assay filed under Homo sapiens [5] it was 12.

As to `CC(=O)OCC(=O)[C@@]1(O)[C@H](C)CC2C3C[C@H](F)C4=CC(=O)C=CC4(C)C3C(O)CC21C` (some centres undefined), the Potency result in the assay filed under Homo sapiens [13] was “inactive”. Moreover, the Potency in the assay filed under Rattus norvegicus [4] is listed as 60.

With `CC(=O)OCC(=O)[C@@]1(O)CC[C@H]2[C@@H]3CCC4=CC(=O)CC[C@]4(C)[C@@]3(F)[C@@H](O)C[C@@]21C` [FLUDROCORTISONE ACETATE], the values for the Potency in the assay filed under Homo sapiens [5] and in the assay listed under Rattus norvegicus [4] were 1 and 7.3, respectively.

On to `C[C@@H]1CC2C3C[C@H](Cl)C4=CC(=O)C=CC4(C)C3C(O)CC2(C)C1C(=O)COC(=O)C(C)(C)C` (some centres undefined), for which the Potency entry in the assay filed under Homo sapiens [1] is “inactive”.

Turning to `C[C@@H]1C[C@H]2[C@@H]3C[C@H](F)C4=CC(=O)C=C[C@]4(C)[C@H]3[C@@H](O)C[C@]2(C)[C@H]1C(=O)CO` [FLUOCORTOLONE], in the assay filed under Homo sapiens [2], the Potency entry was “inactive”. The Potency in the assay filed under Rattus norvegicus [4] is on record as 350.

For the molecule `CC(=O)OCC(=O)[C@@]1(O)CCC2C3CCC4=CC(=O)C=CC4(C)C3[C@@H](Cl)CC21C` (some centres undefined), the Potency in the assay filed under Rattus norvegicus [7] was determined as 0.15.

Consider `CCC(=O)O[C@]1(C(=O)C(=O)OCCl)CC[C@H]2C3CCC4=CC(=O)CCC4(C)C3[C@@H](O)CC21C` (some centres undefined), for which the Potency entry in the assay listed under Homo sapiens [1] is “inactive”.

On to `CCC(=O)O[C@]1(C(=O)OCCl)CCC2C3CCC4=CC(=O)CCC4(C)C3[C@@H](O)CC21C` (some centres undefined), for which the Potency entry in the assay listed under Homo sapiens [1] is “inactive”.

`C[C@]12CCC(=O)C=C1CC[C@@H]1[C@@H]2[C@@H](O)C[C@@]2(C)[C@H]1CC[C@]2(O)C(=O)CO` [HYDROCORTISONE]: the Potency is listed as under 1 in the assay listed under Homo sapiens [5] and 1 in the assay filed under Rattus norvegicus [4].

As for `CC1(C)O[C@@H]2CC3C4CCC5=CC(=O)C=CC5(C)C4[C@@H](O)CC3(C)[C@]2(C(=O)CCl)O1` (some centres undefined), the Potency result in the assay listed under Homo sapiens [14] is “inactive”.

For the molecule `CC(=O)O[C@]1(C(=O)CO)CCC2C3CCC4=CC(=O)CCC4(C)C3C(O)CC21C` (some centres undefined), in the assay filed under Homo sapiens [1], the Potency result was “inactive”.
